Test results: patent publication US20220144838A1, “Compounds as Inhibitors of Macrophage Migration Inhibitory Factor” (NANJING IMMUNOPHAGE BIOTECH CO., LTD., priority 2019, published 2022)

molecular target: T1, MIF (Homo sapiens, UniProt P14174); experiment: MIF tautomerase assay using pHPP as substrate; assay type: biochemical; conditions: FIGS. 1-5; mean of multiple test results; read-out: pIC50 MIF tautomerase activity (converted)
T1 sequence (P14174 2-115 limits assumed): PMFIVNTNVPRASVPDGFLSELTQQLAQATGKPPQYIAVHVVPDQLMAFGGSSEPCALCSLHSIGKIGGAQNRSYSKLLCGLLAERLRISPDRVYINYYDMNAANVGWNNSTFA
In short: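 Mean pIC50 derived from initial rates (absorbance progress-curve slopes) of MIF-catalyzed ketonic-to-enolic pHPP conversion, read as enol–borate complex. Reactions contained 1.5 mM substrate and 3 nM enzyme (final), 200 mM boric acid stock buffer, BSA and CHAPS, pH 6.0.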

IC50 [nM] | Compound
≤ 100 | O=C(O)Cn1cnc2c(-n3ncc4c(C(=O)O)cccc43)nc(N3CCN(c4ccc(O)cc4)CC3)nc21 [Example 99, 1-(9-(carboxymethyl)-2-(4-(4-hydroxyphenyl)piperazin-1-yl)-9H-purin-6-yl)-1H-indazole-4-carboxylic acid]
≤ 100 | O=C(O)Cn1cnc2c(-n3ncc4cc(CO)ccc43)nc(N3CCN(c4ccc(O)cc4)CC3)nc21 [Example 109, 2-(6-(5-(hydroxymethyl)-1H-indazol-1-yl)-2-(4-(4-hydroxyphenyl)piperazin-1-yl)-9H-purin-9-yl)acetic acid]

Compound | IC50 [nM]
CC(C)(C)OC(=O)Cn1cnc2c(-n3nnc4c(C(=O)O)cccc43)nc(N3CCN(c4ccc(O)cc4)CC3)nc21 [Example 100, 1-(9-(2-(tert-butoxy)-2-oxoethyl)-2-(4-(4-hydroxyphenyl)piperazin-1-yl)-9H-purin-6-yl)-1H-benzo[d][1,2,3]triazole-4-carboxylic acid] | ≤ 100

same assay, conditions: inhibition of the MIF enzyme in vitro; mean of multiple test results; read-out: Tautomerase Inhibition pIC50 (converted)

IC50 [nM] | Compound
100 to 977 | O=C(Cn1cnc2c(-n3ncc4ccccc43)nc(N3CCN(c4ccc(O)cc4)CC3)nc21)NS(=O)(=O)c1ccccc1 [Example 97, 2-(2-(4-(4-hydroxyphenyl)piperazin-1-yl)-6-(1H-indazol-1-yl)-9H-purin-9-yl)-N-(phenylsulfonyl)acetamide]
100 to 977 | O=C(Cn1cnc2c(-n3ncc4ccccc43)nc(N3CCN(c4ccc(O)cc4)CC3)nc21)NS(=O)(=O)Cc1ccccc1 [Example 98, N-(benzylsulfonyl)-2-(2-(4-(4-hydroxyphenyl)piperazin-1-yl)-6-(1H-indazol-1-yl)-9H-purin-9-yl)acetamide]
1000 to 9770 | O=C(O)Cn1cnc2c(-n3ncc4ccc(C(=O)O)cc43)nc(N3CCN(c4ccc(O)cc4)CC3)nc21 [Example 104, 1-(9-(carboxymethyl)-2-(4-(4-hydroxyphenyl)piperazin-1-yl)-9H-purin-6-yl)-1H-indazole-6-carboxylic acid]
100 to 977 | O=C(O)Cn1cnc2c(-n3ncc4ccc(CO)cc43)nc(N3CCN(c4ccc(O)cc4)CC3)nc21 [Example 105, 2-(6-(6-(hydroxymethyl)-1H-indazol-1-yl)-2-(4-(4-hydroxyphenyl)piperazin-1-yl)-9H-purin-9-yl)acetic acid]
100 to 977 | O=C(O)Cn1cnc2c(-n3ncc4c(Cl)cccc43)nc(N3CCN(c4ccc(O)cc4)CC3)nc21 [Example 106, 2-(6-(4-chloro-1H-indazol-1-yl)-2-(4-(4-hydroxyphenyl)piperazin-1-yl)-9H-purin-9-yl)acetic acid]
10 to 97.7 | O=C(O)Cn1cnc2c(-n3ncc4c(O)cccc43)nc(N3CCN(c4ccc(O)cc4)CC3)nc21 [Example 108, 2-(6-(4-hydroxy-1H-indazol-1-yl)-2-(4-(4-hydroxyphenyl)piperazin-1-yl)-9H-purin-9-yl)acetic acid]
10 to 97.7 | O=C(O)Cn1cnc2c(-n3ncc4cc(CO)ccc43)nc(N3CCN(c4ccc(O)cc4)CC3)nc21 [Example 109, 2-(6-(5-(hydroxymethyl)-1H-indazol-1-yl)-2-(4-(4-hydroxyphenyl)piperazin-1-yl)-9H-purin-9-yl)acetic acid]
100 to 977 | Oc1ccc(N2CCN(c3nc(-n4ncc5ccccc54)c4ncn(Cc5ccccn5)c4n3)CC2)cc1 [Example 116, 4-(4-(6-(1H-indazol-1-yl)-9-(pyridin-2-ylmethyl)-9H-purin-2-yl)piperazin-1-yl)phenol]
100 to 977 | Oc1ccc(N2CCN(c3nc(-n4ncc5ccccc54)c4ncn(CCc5nnn[nH]5)c4n3)CC2)cc1 [Example 117, 4-(4-(9-(2-(1H-tetrazol-5-yl)ethyl)-6-(1H-indazol-1-yl)-9H-purin-2-yl)piperazin-1-yl)phenol]
10 to 97.7 | CC(C(=O)O)n1cnc2c(-n3ncc4ccccc43)nc(N3CCN(c4ccc(O)cc4)CC3)nc21 (centres unmarked) [Example 124, 2-(2-(4-(4-hydroxyphenyl)piperazin-1-yl)-6-(1H-indazol-1-yl)-9H-purin-9-yl)propanoic acid]
10 to 97.7 | CCC(C(=O)O)n1cnc2c(-n3ncc4ccccc43)nc(N3CCN(c4ccc(O)cc4)CC3)nc21 (centres unmarked) [Example 127, 2-(2-(4-(4-hydroxyphenyl)piperazin-1-yl)-6-(1H-indazol-1-yl)-9H-purin-9-yl)butanoic acid]
10 to 97.7 | CC(C)(C(=O)O)n1cnc2c(-n3ncc4ccccc43)nc(N3CCN(c4ccc(O)cc4)CC3)nc21 [Example 128, 2-(2-(4-(4-hydroxyphenyl)piperazin-1-yl)-6-(1H-indazol-1-yl)-9H-purin-9-yl)-2-methylpropanoic acid]
> 10000 | O=C(O)Cn1cnc2c(-n3ncc4ccccc43)nc(N3CCN(c4ccc(O)nc4)CC3)nc21 [Example 129, 2-(2-(4-(6-hydroxypyridin-3-yl)piperazin-1-yl)-6-(1H-indazol-1-yl)-9H-purin-9-yl)acetic acid]

The remaining lines, values behind:

Compound | IC50 [nM]
OCC1CCN(c2nc(N3CCN(c4ccc(O)cc4)CC3)nc3c2ncn3-c2cccnc2)C1 (centres unmarked) [Example 94, 4-(4-(6-(3-(hydroxymethyl)pyrrolidin-1-yl)-9-(pyridin-3-yl)-9H-purin-2-yl)piperazin-1-yl)phenol] | 100 to 977
Oc1ccc(N2CCN(c3nc(NC4CCCC4)c4ncn(-c5cccnc5)c4n3)CC2)cc1 [Example 96, 4-(4-(6-(cyclopentylamino)-9-(pyridin-3-yl)-9H-purin-2-yl)piperazin-1-yl)phenol] | 1000 to 9770
O=C(O)Cn1cnc2c(-n3ncc4c(C(=O)O)cccc43)nc(N3CCN(c4ccc(O)cc4)CC3)nc21 [Example 99, 1-(9-(carboxymethyl)-2-(4-(4-hydroxyphenyl)piperazin-1-yl)-9H-purin-6-yl)-1H-indazole-4-carboxylic acid] | 10 to 97.7
CC(C)(C)OC(=O)Cn1cnc2c(-n3nnc4c(C(=O)O)cccc43)nc(N3CCN(c4ccc(O)cc4)CC3)nc21 [Example 100, 1-(9-(2-(tert-butoxy)-2-oxoethyl)-2-(4-(4-hydroxyphenyl)piperazin-1-yl)-9H-purin-6-yl)-1H-benzo[d][1,2,3]triazole-4-carboxylic acid] | 10 to 97.7
COC(=O)c1ccc(-n2cnc3c(N)nc(N4CCN(c5ccc(O)cc5)CC4)nc32)cc1 [Example 101, methyl 4-(6-amino-2-(4-(4-hydroxyphenyl)piperazin-1-yl)-9H-purin-9-yl)benzoate] | 100 to 977
Nc1nc(N2CCN(c3ccc(O)cc3)CC2)nc2c1ncn2-c1ccc(C(=O)O)cc1 [Example 102, 4-(6-amino-2-(4-(4-hydroxyphenyl)piperazin-1-yl) 9H-purin-9-yl)benzoic acid] | 1000 to 9770
CNC(=O)c1ccc(-n2cnc3c(N)nc(N4CCN(c5ccc(O)cc5)CC4)nc32)cc1 [Example 103, 4-(6-amino-2-(4-(4-hydroxyphenyl)piperazin-1-yl)-9H-purin-9-yl)-N-methylbenzamide] | 1000 to 9770
COc1cccc2c1cnn2-c1nc(N2CCN(c3ccc(O)cc3)CC2)nc2c1ncn2CC(=O)O [Example 107, 2-(6-(4-methoxy-1H-indazol-1-yl)-2-(4-(4-hydroxyphenyl)piperazin-1-yl)-9H-purin-9-yl)acetic acid] | 10 to 97.7
Cc1nc(N2CCN(c3ccc(O)cc3)CC2)nc2c1ncn2C(CO)CO [Example 110, 2-(2-(4-(4-hydroxyphenyl)piperazin-1-yl)-6-methyl-9H-purin-9-yl)propane-1,3-diol] | > 10000
Cc1nc(N2CCN(c3ccc(O)cc3)CC2)nc2c1ncn2CCO [Example 111, 4-(4-(9-(2-hydroxyethyl)-6-methyl-9H-purin-2-yl)piperazin-1-yl)phenol] | 1000 to 9770
OCCNc1nc(N2CCN(c3ccc(O)cc3)CC2)nc2c1ncn2-c1cccnc1 [Example 112, 4-(4-(6-((2-hydroxyethyl)amino)-9-(pyridin-3-yl)-9H-purin-2-yl)piperazin-1-yl)phenol] | 100 to 977
OCCCNc1nc(N2CCN(c3ccc(O)cc3)CC2)nc2c1ncn2-c1cccnc1 [Example 113, 4-(4-(6-((3-hydroxypropyl)amino)-9-(pyridin-3-yl)-9H-purin-2-yl)piperazin-1-yl)phenol] | 100 to 977
CCC(CO)Nc1nc(N2CCN(c3ccc(O)cc3)CC2)nc2c1ncn2-c1cccnc1 (centres unmarked) [Example 114] | 100 to 977
O=C(O)Cn1cnc2c(-c3cccc4[nH]ccc34)nc(N3CCN(c4ccc(O)cc4)CC3)nc21 [Example 118, 2-(2-(4-(4-hydroxyphenyl)piperazin-1-yl)-6-(1H-indol-4-yl)-9H-purin-9-yl)acetic acid] | 1000 to 9770
O=C(O)Cn1cnc2c(N3Cc4ccccc4C3=O)nc(N3CCN(c4ccc(O)cc4)CC3)nc21 [Example 119, 2-(2-(4-(4-hydroxyphenyl)piperazin-1-yl)-6-(1-oxoisoindolin-2-yl)-9H-purin-9-yl)acetic acid] | 100 to 977
O=C(O)Cn1cnc2c(-n3nnc4cccnc43)nc(N3CCN(c4ccc(O)cc4)CC3)nc21 [Example 120, 2-(6-(3H-[1,2,3]triazolo[4,5-b]pyridin-3-yl)-2-(4-(4-hydroxyphenyl)piperazin-1-yl)-9H-purin-9-yl)acetic acid] | 10 to 97.7
O=C(O)Cn1cnc2c(-n3nnc4ccncc43)nc(N3CCN(c4ccc(O)cc4)CC3)nc21 [Example 121, 2-(6-(3H-[1,2,3]triazolo[4,5-c]pyridin-3-yl)-2-(4-(4-hydroxyphenyl)piperazin-1-yl)-9H-purin-9-yl)acetic acid] | 10 to 97.7
O=C(O)Cn1cnc2c(-n3nnc4c(C(=O)O)cccc43)nc(N3CCN(c4ccc(O)cc4)CC3)nc21 [Example 122, 1-(9-(carboxymethyl)-2-(4-(4-hydroxyphenyl)piperazin-1-yl)-9H-purin-6-yl)-1H-benzo[d][1,2,3]triazole-4-carboxylic acid] | 10 to 97.7
O=C(O)Cn1cnc2c(-n3nnc4c(CO)cccc43)nc(N3CCN(c4ccc(O)cc4)CC3)nc21 [Example 123, 2-(6-(4-(hydroxymethyl)-1H-benzo[d][1,2,3]triazol-1-yl)-2-(4-(4-hydroxyphenyl)piperazin-1-yl)-9H-purin-9-yl)acetic acid] | 10 to 97.7
CC(C(=O)O)n1cnc2nc(N3CCN(c4ccc(O)cc4)CC3)nc(-n3ncc4ccccc43)c21 (centres unmarked) [Example 125, 2-(2-(4-(4-hydroxyphenyl)-piperazin-1-yl)-6-(1H-indazol-1-yl)-7H-purin-7-yl)propanoic acid] | 100 to 977
CC(C(=O)O)n1cnc2c(-n3cc4ccccc4n3)nc(N3CCN(c4ccc(O)cc4)CC3)nc21 (centres unmarked) [Example 126, 2-(2-(4-(4-hydroxyphenyl)piperazin-1-yl)-6-(2H-indazol-2-yl)-9H-purin-9-yl)propanoic acid] | 100 to 977
O=C(O)Cn1cnc2c(-n3ncc4ccccc43)nc(N3CCN(c4ncc(O)cc4F)CC3)nc21 [Example 130, 2-(2-(4-(3-fluoro-5-hydroxypyridin-2-yl)piperazin-1-yl)-6-(1H-indazol-1-yl)-9H-purin-9-yl)acetic acid] | > 10000
